Tests used:
Format in all cases: in vivo
[1] = system: Alopecurus myosuroides (ALOMY); experiment: Pre-emergence biological efficacy, glasshouse pot test; details: 312 h
Outline: (§1)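 One day after seeds were sown in pots, compound was sprayed at 1000 or 250 g/ha. Plants were kept at 24/16 °C with 14 h light and 65% humidity and watered twice daily; damage was graded at day 13 (0 none, 100 total).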

[2] = system: Amaranthus retoflexus (AMARE); experiment: as above; details: Amaranthus retroflexus, 312 h
Outline: as §1

[3] = system: Echinochloa crus-galli (ECHCG); experiment: as above; details: 312 h
Outline: as §1

[4] = system: Ipomea hederaceae (IPOHE); experiment: as above; details: Ipomoea hederacea, 312 h
Outline: as §1

Setaria faberi (SETFA) [5] = experiment: as above; details: 312 h
Outline: as §1

Solanum nigrum (SOLNI) [6] = experiment: as above; details: 312 h
Outline: as §1

[7] = system: Alopecurus myosuroides (ALOMY); experiment: Post-emergence biological efficacy, glasshouse pot test; details: 312 h
Outline: (§2)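 Plants were sown in standard soil and grown 8 days in a glasshouse (24/16° C. day/night, 14 hours light, 65% humidity), then sprayed post-emergence at 1000 or 250 g/ha from acetone/water (50:50) with 0.5% Tween 20. Damage was scored visually after 13 days (0 = none, 100 = total).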

[8] = system: Amaranthus retoflexus (AMARE); experiment: as above; details: Amaranthus retroflexus, 312 h
Outline: as §2

[9] = system: Echinochloa crus-galli (ECHCG); experiment: as above; details: 312 h
Outline: as §2

[10] = system: Ipomea hederaceae (IPOHE); experiment: as above; details: Ipomoea hederacea, 312 h
Outline: as §2

Setaria faberi (SETFA) [11] = experiment: as above; details: 312 h
Outline: as §2

Solanum nigrum (SOLNI) [12] = experiment: as above; details: 312 h
Outline: as §2

[13] = pre-emergence, rate 1,000 g/ha, evaluated after 13 days (100=total damage to plant; 0=no damage), read-out: Percentage damage caused to weed species, ALOMY
[14] = pre-emergence, rate 1,000 g/ha, evaluated after 13 days (100=total damage to plant; 0=no damage), read-out: Percentage damage caused to weed species, AMARE
[15] = pre-emergence, rate 1,000 g/ha, evaluated after 13 days (100=total damage to plant; 0=no damage), read-out: Percentage damage caused to weed species, ECHCG
[16] = pre-emergence, rate 1,000 g/ha, evaluated after 13 days (100=total damage to plant; 0=no damage), read-out: Percentage damage caused to weed species, IPOHE
[17] = pre-emergence, rate 1,000 g/ha, evaluated after 13 days (100=total damage to plant; 0=no damage), read-out: Percentage damage caused to weed species, SETFA
[18] = pre-emergence, rate 1,000 g/ha, evaluated after 13 days (100=total damage to plant; 0=no damage), read-out: Percentage damage caused to weed species, SOLNI
[19] = Rate 1,000 g/ha, post-emergence spray, evaluated after 13 days (100=total damage to plant; 0=no damage to plant), read-out: Percentage damage caused to weed species, post-emergence, ALOMY
[20] = Rate 1,000 g/ha, post-emergence spray, evaluated after 13 days (100=total damage to plant; 0=no damage to plant), read-out: Percentage damage caused to weed species, post-emergence, AMARE
[21] = Rate 1,000 g/ha, post-emergence spray, evaluated after 13 days (100=total damage to plant; 0=no damage to plant), read-out: Percentage damage caused to weed species, post-emergence, ECHCG
[22] = Rate 1,000 g/ha, post-emergence spray, evaluated after 13 days (100=total damage to plant; 0=no damage to plant), read-out: Percentage damage caused to weed species, post-emergence, IPOHE
[23] = Rate 1,000 g/ha, post-emergence spray, evaluated after 13 days (100=total damage to plant; 0=no damage to plant), read-out: Percentage damage caused to weed species, post-emergence, SETFA
[24] = Rate 1,000 g/ha, post-emergence spray, evaluated after 13 days (100=total damage to plant; 0=no damage to plant), read-out: Percentage damage caused to weed species, post-emergence, SOLNI
[25] = pre-emergence, 1,000 g/ha, evaluated after 13 days (100=total damage; 0=no damage), read-out: Percentage damage ALOMY
[26] = pre-emergence, 1,000 g/ha, evaluated after 13 days (100=total damage; 0=no damage), read-out: Percentage damage AMARE
[27] = pre-emergence, 1,000 g/ha, evaluated after 13 days (100=total damage; 0=no damage), read-out: Percentage damage ECHCG
[28] = pre-emergence, 1,000 g/ha, evaluated after 13 days (100=total damage; 0=no damage), read-out: Percentage damage IPOHE
[29] = pre-emergence, 1,000 g/ha, evaluated after 13 days (100=total damage; 0=no damage), read-out: Percentage damage SETFA
[30] = pre-emergence, 1,000 g/ha, evaluated after 13 days (100=total damage; 0=no damage), read-out: Percentage damage SOLNI
[31] = post-emergence, 1,000 g/ha, evaluated after 13 days (100=total damage; 0=no damage), read-out: Percentage damage caused to weed species, ALOMY
[32] = post-emergence, 1,000 g/ha, evaluated after 13 days (100=total damage; 0=no damage), read-out: Percentage damage caused to weed species, AMARE
[33] = post-emergence, 1,000 g/ha, evaluated after 13 days (100=total damage; 0=no damage), read-out: Percentage damage caused to weed species, ECHCG
[34] = post-emergence, 1,000 g/ha, evaluated after 13 days (100=total damage; 0=no damage), read-out: Percentage damage caused to weed species, IPOHE
[35] = post-emergence, 1,000 g/ha, evaluated after 13 days (100=total damage; 0=no damage), read-out: Percentage damage caused to weed species, SETFA
[36] = post-emergence, 1,000 g/ha, evaluated after 13 days (100=total damage; 0=no damage), read-out: Percentage damage caused to weed species, SOLNI

| Structure (SMILES) | pest or weed control at 1000 g/ha [1, 13] | pest or weed control at 1000 g/ha [2, 14] | pest or weed control at 1000 g/ha [3, 15] | pest or weed control at 1000 g/ha [4, 16] | pest or weed control at 1000 g/ha (Setaria faberi (SETFA) [5]; [17]) | pest or weed control at 1000 g/ha (Solanum nigrum (SOLNI) [6]; [18]) | pest or weed control at 1000 g/ha [7, 19] | pest or weed control at 1000 g/ha [8, 20] | pest or weed control at 1000 g/ha [1, 25] | pest or weed control at 1000 g/ha [2, 26] | pest or weed control at 1000 g/ha [3, 27] | pest or weed control at 1000 g/ha [4, 28] | pest or weed control at 1000 g/ha (Setaria faberi (SETFA) [5]; [29]) | pest or weed control at 1000 g/ha (Solanum nigrum (SOLNI) [6]; [30]) | pest or weed control at 1000 g/ha [7, 31] | pest or weed control at 1000 g/ha [8, 32] | pest or weed control at 1000 g/ha [9, 33] | pest or weed control at 1000 g/ha [10, 34] | pest or weed control at 1000 g/ha (Setaria faberi (SETFA) [11]; [35]) | pest or weed control at 1000 g/ha (Solanum nigrum (SOLNI) [12]; [36]) | also measured |
| --- | --- | --- | --- | --- | --- | --- | --- | --- | --- | --- | --- | --- | --- | --- | --- | --- | --- | --- | --- | --- | --- |
| CCCN(Cc1ccccc1)c1nc(C2CC2)nc(C(=O)OC)c1Cl [Compound 145-60] | 0% | 100% | 0% | 40% | 10% | 70% | 20% | 90% |  |  |  |  |  |  |  |  |  |  |  |  | pest or weed control at 1000 g/ha [9, 21]: 40%; pest or weed control at 1000 g/ha [10, 22]: 80%; pest or weed control at 1000 g/ha (Setaria faberi (SETFA) [11]; [23]): 70%; pest or weed control at 1000 g/ha (Solanum nigrum (SOLNI) [12]; [24]): 80% |
| COC(=O)c1nc(C2CC2)nc(NCc2c(F)cccc2F)c1Cl [Compound 4-99, 5-Chloro-2-cyclopropyl-4-(2,6-difluorophenylmeth-ylamino)-6-methoxycarbonyl-pyrimidine] |  |  |  |  |  |  |  |  | 30% | 60% | 50% | 60% | 50% | 60% | 50% | 100% | 100% | 100% | 100% | 100% |  |
| COC(=O)c1nc(C2CC2)nc(NC(C)C(O)c2ccc(O)cc2)c1Cl (stereo not drawn) [Compound 4-271, 5-Chloro-2-cyclopropyl-4-[2-hydroxy-2-(4-hydroxyphenyl)-1-methyl-ethylamino]-6-methoxycarbonyl-pyrimidine] |  |  |  |  |  |  |  |  | 20% | 100% | 20% | 100% | 30% | 90% | 30% | 100% | 70% | 100% | 80% | 90% |  |
| COC(=O)c1nc(C2CC2)nc(N[C@@H](C)C2CCCCC2)c1Cl [4-173 (S), 5-Chloro-4-[(1S)-1-(cyclohexyl)ethyl-amino]-2-cyclopropyl-6-methoxycarbonyl-pyrimidine] |  |  |  |  |  |  |  |  | 0% | 20% | 0% | 0% | 0% | 0% | 0% | 20% | 0% | 40% | 0% | 20% |  |
| CCN(Cc1ccc(Br)s1)c1nc(C2CC2)nc(C(=O)OC)c1Cl [Compound 6-142, 4-[N-(5-bromothiophen-2-ylmethyl)-N-ethyl-amino]-5-chloro-2-cyclopropyl-6-methoxycarbonyl-pyrimidine] | 0% | 50% | 0% | 60% | 10% | 10% | 30% | 100% |  |  |  |  |  |  |  |  |  |  |  |  | pest or weed control at 1000 g/ha [9, 21]: 60%; pest or weed control at 1000 g/ha [10, 22]: 100%; pest or weed control at 1000 g/ha (Setaria faberi (SETFA) [11]; [23]): 90%; pest or weed control at 1000 g/ha (Solanum nigrum (SOLNI) [12]; [24]): 90% |
| COC(=O)c1nc(C2CC2)nc(NCc2c(F)ccc(F)c2F)c1Cl [Compound 4-118, 5-Chloro-2-cyclopropyl-6-methoxycarbonyl-4-(2,3,6-trifluoro-phenylmethyl-amino)pyrimidine] |  |  |  |  |  |  |  |  | 20% | 40% | 50% | 70% | 0% | 40% | 60% | 100% | 80% | 90% | 80% | 80% |  |
| CC(C)OC(=O)c1nc(C2CC2)nc(NCc2ccco2)c1Cl [Compound 197-125, 5-Chloro-2-cyclo-propyl-4-(2-furanylmethyl-amino)-6-iso-propoxycarbonyl-pyrimidine] | 50% | 100% | 70% | 100% | 70% | 90% | 50% | 100% |  |  |  |  |  |  |  |  |  |  |  |  | pest or weed control at 1000 g/ha [9, 21]: 70%; pest or weed control at 1000 g/ha [10, 22]: 100%; pest or weed control at 1000 g/ha (Setaria faberi (SETFA) [11]; [23]): 100%; pest or weed control at 1000 g/ha (Solanum nigrum (SOLNI) [12]; [24]): 100% |
| O=C(OCc1ccccc1)c1nc(C2CC2)nc(NCc2ccco2)c1Cl [Compound 200-125] | 50% | 100% | 70% | 100% | 70% | 100% | 30% | 100% |  |  |  |  |  |  |  |  |  |  |  |  | pest or weed control at 1000 g/ha [9, 21]: 70%; pest or weed control at 1000 g/ha [10, 22]: 90%; pest or weed control at 1000 g/ha (Setaria faberi (SETFA) [11]; [23]): 80%; pest or weed control at 1000 g/ha (Solanum nigrum (SOLNI) [12]; [24]): 90% |
| COC(=O)c1nc(C2CC2)nc(NC(c2ccc(Cl)cc2)C2CC2)c1Cl (stereo not drawn) [Compound 4-200, 5-Chloro-4-[1-(4-chlorophenyl)-1-(cyclopropyl)methyl-amino]-2-cyclopropyl-6-methoxycarbonyl-pyrimidine] |  |  |  |  |  |  |  |  | 0% | 20% | 0% | 50% | 0% | 0% | 20% | 100% | 20% | 90% | 40% | 80% |  |

— patent US20110086759A1, “CHEMICAL COMPOUNDS” (SYNGENTA CROP PROTECTION, INC., priority 2007, published 2011)
